Assay results from paper PMC10388202, “Single amino acid–based PROTACs trigger degradation of the oncogenic kinase BCR–ABL in chronic myeloid leukemia (CML)” (The Journal of Biological Chemistry, 2023).
Several values for one entry are separate records, joined by “and”; a condition that tells them apart may be missing. Equal entries are not always repeated. Entries after “also recorded” stand apart in the source; their conditions may differ. Where two headings read alike, the source gives them in different places. Peptide text beside a SMILES is read from it. * marks the point of attachment. Cbz = O=C(OCc1ccccc1)*

Key:
BCR–ABL [1] = target: T1, BCR–ABL (Homo sapiens, UniProt P00519); assay: BCR–ABL degradation in K562 cells (immunoblot); type: cell-based; conditions: 5 nM, 48 h, read-out: DMax (maximum degradation percentage in comparison with control) at 5 nM
T1 construct: assessed in human CML K562 cells bearing BCR–ABL; host or cells: K562
Protocol: (§1) The ability of Arg-PEGn-Dasa PROTACs to induce BCR–ABL degradation was assessed in human CML K562 cells bearing BCR–ABL. […] We next evaluated the impact of Arg-PEGn-Dasa on cell proliferation in K562 cells using Cell Counting Kit-8 (CCK-8) assay.
(§2) Cells were collected and lysed in radioimmunoprecipitation assay buffer (50 mM Tris–HCl [pH 8.0], 1% NP-40, 150 mM NaCl, 0.1% SDS, 0.5% sodium deoxycholate, and 1× complete protease inhibitor cocktail) on ice for 20 min and centrifuged at 15,000 rpm for 10 min at 4 °C to collect the supernatant. After protein concentrations were measured by the bicinchoninic acid protein assay kit (Thermo Scientific), samples with equal amounts of proteins were mixed with loading buffer and denatured by boiling. Protein lysates were resolved by SDS-PAGE and transferred to polyvinylidene fluoride membranes. Then, the membranes were blocked in 5% nonfat milk for 1 h at room temperature, incubated with a primary antibody overnight at 4 °C, and then incubated with horseradish peroxidase–conjugated secondary antibodies for 1 h at room temperature. Subsequently, the membranes were probed with ECL reagent (Millipore), and proteins were visualized by a Tanon-5200 Automatic Chemiluminescence Imaging Analysis System (Tanon).

K562 cells [2] = assay: K562 cell viability, CCK-8 assay; type: cell-based; conditions: Homo sapiens, 48 h, read-out: IC50 (half maximal inhibitory concentration), K562 proliferation
Protocol: K562 cells (5 × 10^3 cells per well) were grown in 96-well plates with 100 μl medium. After the treatment with the PROTACs at various concentrations (0, 0.01, 0.1, 0.25, 0.5, 0.75, 1, and 2.5 nM) for 48 h, CCK-8 solution was added to each well and incubated for 2 h at 37 °C, and the number of viable cells was determined by measuring the absorbance of the converted dye at a 450 nm wavelength, according to the manufacturer’s instructions (Yeasen). Each experiment was performed at least three times independently.

BCR–ABL [3] = target: T2, BCR–ABL (Homo sapiens, UniProt P00519+P11274); assay: BCR–ABL degradation in K562 cells (immunoblot); type: cell-based; parameters: assessed in human CML K562 cells bearing BCR–ABL; host or cells: K562; conditions: for time at which BCR–ABL reduction appears: 1 nM; for DC50: immunoblot, read-out: DC50 (drug concentration that degrades 50% protein)
Protocol: as §1, §2

K562 cells [4] = assay: K562 cell growth after drug washout (CCK-8); type: cell-based, human; conditions: 1 nM 48 h, drug-free medium 1 to 4 days
Protocol: Figure 2 Arg-PEG (1–4)-Dasa induced the degradation of BCR–ABL through the proteasome.A, K562 cells were incubated with Arg-PEG (1–4)-Dasa bearing different numbers of PEG linker at indicated concentration for 48 h. The expression of various proteins indicated was determined by immunoblotting. B, K562 cell viability was examined using CCK-8 assays after the treatment with Arg-PEG (1–4)-Dasa for 48 h at various concentrations (0, 0.01, 0.1, 0.25, 0.5, 0.75, 1, and 2.5 nM). C, immunoblot analysis of the indicated proteins in K562 cells treated with various compounds at 1 nM for 48 h. D, immunoblot analysis of the proteins indicated in K562 cells treated with gradually increasing doses of Arg-PEG1-Dasa for 48 h. E, immunoblot analysis of the indicated proteins in K562 cells treated with DMSO, Arg-PEG1-Dasa, Dasa, or NH2-PEG1-Dasa at 1 nM for 48 h. F, immunoblot analysis of the indicated proteins in K562 cells pretreated with Dasa or NH2-PEG1-Dasa (1 nM) for 2 h followed by Arg-PEG1-Dasa treatment at 1 nM for 48 h. G and H, K562 cells were treated with indicated compounds at 1 nM for 2 days, following washout and incubation compound-free medium. G, cell growth was detected using CCK-8 assays at the indicated times. H, the protein level indicated was tested with immunoblot. […]

pSTAT5 = assay: STAT5 phosphorylation after drug washout (immunoblot); type: cell-based, human; conditions: K562 cells, 1 nM 2 days, compound-free medium
Protocol: For controls, we also examined the activity of the PROTAC without the single amino acid (an intermediate product NH2-PEG1-Dasa, Fig. S1A) or Dasa alone on cell viability of K562 cells for 48 h. […] Moreover, the ability of Arg-PEG1-Dasa–mediated degradation of BCR–ABL was mitigated by cotreatment with excess Dasa or NH2-PEG1-Dasa in the competition assay (Fig. 2F). One advantage of PROTACs versus traditional inhibitors is that only the transient drug–target interaction is needed for its target suppression.
as §2, with “Subsequently, the membranes were probed with ECL reagent (Millipore), and proteins were visualized by a Tanon-5200 Automatic Chemiluminescence Imaging Analysis System (Tanon).” left out

[5] = Body weight of mice in K562 xenograft model; type: in vivo
Protocol: (§3) To evaluate the effects of the N-end rule–based PROTAC on tumor growth in vivo, we set up a K562 CML xenograft mouse model. K562 cells were subcutaneously implanted into the right flank of female nude mice. When the tumors reached a palpable volume of about 50 to 80 mm^3 at day 7, the mice bearing K562 tumors were then divided into two groups randomly and administered every other day with either vehicle or Arg-PEG1-Dasa (10 mg/kg) for total 10 doses by intraperitoneal injection. Tumor volumes were measured at indicated time with calipers. When sacrificed on day 27, the tumors were harvested and photographed (Fig. 6A). The amount of BCR–ABL protein in vivo upon Arg-PEG1-Dasa treatment was examined in K562 xenograft mouse model using the immunohistochemistry (Fig. 6B) and immunoblot (Fig. 6C). […]. Further studies are needed to optimize PROTAC or administration strategy to achieve better therapeutic effects.
(§4) K562 cells (1 × 10^7 cells/200 μl) were subcutaneously injected into the right flank of 4-week-old female nude mice. […]. The drugs were subsequently administered by i.p. injection every other day with either vehicle, Arg-PEG1-Dasa, or Dasa (10 mg/kg) for total 10 doses. The growth of tumors in mice was measured with a Vernier caliper. The tumor volume was determined using the formula volume = 0.5 × (length) × (width)^2. […]

K562 xenograft = assay: K562 CML xenograft mouse model, tumor growth; type: in vivo; conditions: nude mice, 10 mg/kg i.p. every other day, 10 doses, day 27
Protocol: as §3, §4

BCR–ABL [6] = target: T2, BCR–ABL; assay: BCR–ABL protein in K562 xenograft tumors (immunohistochemistry, immunoblot); conditions: nude mice, 10 mg/kg i.p. every other day, 10 doses, IHC and immunoblot
Protocol: To evaluate the effects of the N-end rule–based PROTAC on tumor growth in vivo, we set up a K562 CML xenograft mouse model. K562 cells were subcutaneously implanted into the right flank of female nude mice. […] Tumor volumes were measured at indicated time with calipers. When sacrificed on day 27, the tumors were harvested and photographed (Fig. 6A).
Cells were collected and lysed in radioimmunoprecipitation assay buffer (50 mM Tris–HCl [pH 8.0], 1% NP-40, 150 mM NaCl, 0.1% SDS, 0.5% sodium deoxycholate, and 1× complete protease inhibitor cocktail) on ice for 20 min and centrifuged at 15,000 rpm for 10 min at 4 °C to collect the supernatant. After protein concentrations were measured by the bicinchoninic acid protein assay kit (Thermo Scientific), samples with equal amounts of proteins were mixed with loading buffer and denatured by boiling. Protein lysates were resolved by SDS-PAGE and transferred to polyvinylidene fluoride membranes. Then, the membranes were blocked in 5% nonfat milk for 1 h at room temperature, incubated with a primary antibody overnight at 4 °C, and then incubated with horseradish peroxidase–conjugated secondary antibodies for 1 h at room temperature. Subsequently, the membranes were probed with ECL reagent (Millipore), and proteins were visualized by a Tanon-5200 Automatic Chemiluminescence Imaging Analysis System (Tanon). […]

[7] = test system: glutathione-S-transferase-BCR–ABL; assay: Ubiquitination assay of GST-BCR–ABL in HEK293T cells (denaturing IP); type: cell-based, human; conditions: HEK293T cells coexpressing GST-BCR–ABL and myc-Ub, 48 h
Protocol: To determine the degradation pathway of BCR–ABL induced by PROTAC, we added lysosome acidification inhibitor chloroquine or proteasome inhibitor MG132 into Arg-PEG1-Dasa–treated K562 cells. […] To ascertain that Arg-PEG1-Dasa induced BCR–ABL turnover, we monitored the degradation kinetics of BCR–ABL with or without the PROTAC treatment. K562 cells were treated with cycloheximide to block protein synthesis and sampled at various time points for BCR–ABL levels. […] To further evaluate the involvement of the proteasome in PROTAC-induced degradation, we also added the proteasome inhibitor MG132 in the reaction. […] We next sought to investigate the Arg-PEG1-Dasa–induced ubiquitination of BCR–ABL.
Ubiquitination of BCR–ABL was detected using denatured immunoprecipitation. Cells were lysed in SDS-denaturing buffer (50 mM Tris–HCl [pH 7.4], 150 mM NaCl, 1% NP-40, 1% SDS, and 0.5% sodium deoxycholate) and boiled for 10 min. Cell lysates were then diluted 10-fold in native lysis buffer (50 mM Tris–HCl [pH 7.4], 150 mM NaCl, 1% NP-40, and 0.5% sodium deoxycholate). After centrifugation at 15,000 rpm for 10 min, the supernatants were immunoprecipitated using glutathione-Sepharose 4B beads (GE Healthcare) and incubated for 2 h at 4 °C. Beads were then washed five times using the native lysis buffer. […]

T1 sequence (P00519 whole entry, looked up): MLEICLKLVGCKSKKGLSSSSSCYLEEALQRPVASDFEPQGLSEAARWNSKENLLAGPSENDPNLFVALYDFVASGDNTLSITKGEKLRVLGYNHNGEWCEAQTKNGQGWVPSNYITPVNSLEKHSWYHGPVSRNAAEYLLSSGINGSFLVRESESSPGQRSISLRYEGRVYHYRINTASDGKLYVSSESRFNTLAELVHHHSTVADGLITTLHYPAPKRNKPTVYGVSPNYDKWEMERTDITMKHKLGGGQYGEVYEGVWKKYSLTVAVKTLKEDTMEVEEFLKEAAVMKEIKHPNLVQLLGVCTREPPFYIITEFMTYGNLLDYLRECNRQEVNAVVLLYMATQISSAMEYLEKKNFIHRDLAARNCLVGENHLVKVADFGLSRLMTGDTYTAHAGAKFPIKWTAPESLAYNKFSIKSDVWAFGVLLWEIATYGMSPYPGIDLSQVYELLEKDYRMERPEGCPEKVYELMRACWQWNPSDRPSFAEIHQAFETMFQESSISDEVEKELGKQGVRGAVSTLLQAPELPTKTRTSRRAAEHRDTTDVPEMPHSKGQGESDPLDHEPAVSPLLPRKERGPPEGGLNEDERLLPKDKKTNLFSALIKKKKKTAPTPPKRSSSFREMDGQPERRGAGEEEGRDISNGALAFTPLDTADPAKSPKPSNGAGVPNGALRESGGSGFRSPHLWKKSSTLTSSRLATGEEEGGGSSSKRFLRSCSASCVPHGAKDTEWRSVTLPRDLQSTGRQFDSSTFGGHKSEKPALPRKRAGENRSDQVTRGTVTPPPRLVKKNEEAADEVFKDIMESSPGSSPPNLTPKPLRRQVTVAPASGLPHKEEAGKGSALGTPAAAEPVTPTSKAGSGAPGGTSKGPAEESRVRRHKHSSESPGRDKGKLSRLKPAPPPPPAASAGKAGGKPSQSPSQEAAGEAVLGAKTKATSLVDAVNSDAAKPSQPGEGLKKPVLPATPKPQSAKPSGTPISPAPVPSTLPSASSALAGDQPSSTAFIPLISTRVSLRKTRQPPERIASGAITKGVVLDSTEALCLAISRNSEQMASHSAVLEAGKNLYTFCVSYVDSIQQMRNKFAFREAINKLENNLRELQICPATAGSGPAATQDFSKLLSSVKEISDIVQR
T2 sequence (P11274+P00519 fused): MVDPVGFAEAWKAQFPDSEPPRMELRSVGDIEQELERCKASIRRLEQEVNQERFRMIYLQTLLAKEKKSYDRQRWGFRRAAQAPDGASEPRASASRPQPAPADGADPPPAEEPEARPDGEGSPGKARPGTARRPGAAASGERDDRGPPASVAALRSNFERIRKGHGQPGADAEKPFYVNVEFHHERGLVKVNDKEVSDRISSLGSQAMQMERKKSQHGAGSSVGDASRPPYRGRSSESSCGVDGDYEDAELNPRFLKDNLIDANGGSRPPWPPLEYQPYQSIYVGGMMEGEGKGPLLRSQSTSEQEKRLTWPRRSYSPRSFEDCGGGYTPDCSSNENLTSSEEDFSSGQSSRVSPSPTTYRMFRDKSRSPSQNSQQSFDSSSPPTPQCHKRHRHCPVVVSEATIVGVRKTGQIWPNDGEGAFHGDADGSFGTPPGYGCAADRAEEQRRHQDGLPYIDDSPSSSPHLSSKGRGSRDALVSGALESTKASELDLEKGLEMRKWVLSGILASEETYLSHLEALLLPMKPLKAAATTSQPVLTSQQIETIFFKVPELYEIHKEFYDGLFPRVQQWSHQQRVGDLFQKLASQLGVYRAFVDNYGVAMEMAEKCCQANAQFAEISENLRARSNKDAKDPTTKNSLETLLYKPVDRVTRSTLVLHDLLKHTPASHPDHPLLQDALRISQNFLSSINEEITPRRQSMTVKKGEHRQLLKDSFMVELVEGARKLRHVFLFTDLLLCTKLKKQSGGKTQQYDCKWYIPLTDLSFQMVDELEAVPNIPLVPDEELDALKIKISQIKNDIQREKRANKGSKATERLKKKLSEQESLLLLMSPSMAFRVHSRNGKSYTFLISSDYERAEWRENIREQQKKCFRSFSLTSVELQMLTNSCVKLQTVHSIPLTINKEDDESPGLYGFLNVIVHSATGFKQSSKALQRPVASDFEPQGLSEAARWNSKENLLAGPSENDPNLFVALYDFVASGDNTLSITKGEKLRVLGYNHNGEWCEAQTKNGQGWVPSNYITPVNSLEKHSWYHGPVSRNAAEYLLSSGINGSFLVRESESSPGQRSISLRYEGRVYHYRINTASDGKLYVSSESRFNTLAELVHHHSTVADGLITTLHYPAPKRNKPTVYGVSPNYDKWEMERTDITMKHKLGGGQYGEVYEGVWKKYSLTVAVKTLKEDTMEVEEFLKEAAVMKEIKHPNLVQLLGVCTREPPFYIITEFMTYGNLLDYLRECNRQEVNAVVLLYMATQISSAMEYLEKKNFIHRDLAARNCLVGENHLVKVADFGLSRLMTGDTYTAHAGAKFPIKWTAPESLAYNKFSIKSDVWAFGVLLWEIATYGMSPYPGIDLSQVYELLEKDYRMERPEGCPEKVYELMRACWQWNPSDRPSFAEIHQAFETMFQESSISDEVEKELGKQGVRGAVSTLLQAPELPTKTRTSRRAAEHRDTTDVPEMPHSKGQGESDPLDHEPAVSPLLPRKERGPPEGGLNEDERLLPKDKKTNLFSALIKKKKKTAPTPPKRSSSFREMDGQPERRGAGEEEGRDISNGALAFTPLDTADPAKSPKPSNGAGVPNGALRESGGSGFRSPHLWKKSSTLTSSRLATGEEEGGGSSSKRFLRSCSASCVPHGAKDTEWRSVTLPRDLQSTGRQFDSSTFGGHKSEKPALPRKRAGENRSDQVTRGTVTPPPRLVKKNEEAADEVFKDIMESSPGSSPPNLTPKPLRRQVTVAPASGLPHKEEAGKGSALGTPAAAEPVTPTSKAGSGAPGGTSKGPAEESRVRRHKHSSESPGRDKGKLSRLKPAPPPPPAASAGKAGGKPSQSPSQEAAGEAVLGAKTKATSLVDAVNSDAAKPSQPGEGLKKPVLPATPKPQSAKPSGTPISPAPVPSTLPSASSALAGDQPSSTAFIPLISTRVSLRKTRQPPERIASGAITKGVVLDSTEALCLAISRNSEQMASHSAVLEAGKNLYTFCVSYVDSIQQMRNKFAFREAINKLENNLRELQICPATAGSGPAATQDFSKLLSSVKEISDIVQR

SMILES	Dmax at 0.005 µM (BCR–ABL [1]) [%]	IC50 (K562 cells [2]) [nM]	time at which BCR–ABL reduction appears (BCR–ABL [3]) [h]	DC50 (BCR–ABL [3]; 48 h)	further results
Cc1nc(Nc2ncc(C(=O)Nc3c(C)cccc3Cl)s2)cc(N2CCN(CCOC(=O)CCOCCNC(=O)[C@@H](N)Cc3ccccc3)CC2)n1 [Phe-PEG1-Dasa]	81	0.294	36	1.56 nM	DC50 (BCR–ABL [3]; 48 h, listed as Phe-based PROTAC): 1.56 nM
Cc1nc(Nc2ncc(C(=O)Nc3c(C)cccc3Cl)s2)cc(N2CCN(CCOC(=O)CCOCCOCCOCCNC(=O)C(N)CCCNC(=N)N)CC2)n1 (stereo not shown) [Arg-PEG3-Dasa]		0.48			
Cc1nc(Nc2ncc(C(=O)Nc3c(C)cccc3Cl)s2)cc(N2CCN(CCOC(=O)CCOCCOCCOCCOCCNC(=O)C(N)CCCNC(=N)N)CC2)n1 (stereo not shown) [Arg-PEG4-Dasa]		0.524			
CC(C)C[C@@H](C=O)NC(=O)[C@H](CC(C)C)NC(=O)[C@H](CC(C)C)NC(=O)OCc1ccccc1 [MG132, reference compound] (Cbz-Leu-Leu-Leu-aldehyde)					effect on Arg-PEG1-Dasa–mediated degradation of BCR–ABL (BCR–ABL [3]; MG132 10 μM or chloroquine 25 μM with Arg-PEG1-Dasa 1 nM, 48 h): blocked
Cc1nc(Nc2ncc(C(=O)Nc3c(C)cccc3Cl)s2)cc(N2CCN(CCOC(=O)CCOCCNC(=O)[C@@H](N)CC(C)C)CC2)n1 [Leu-PEG1-Dasa]	91.2	0.22	12	0.479 nM	DC50 (BCR–ABL [3]; 48 h, listed as Leu-based PROTAC): 0.48 nM
Cc1nc(Nc2ncc(C(=O)Nc3c(C)cccc3Cl)s2)cc(N2CCN(CCO)CC2)n1 [Dasa, dasatinib, reference compound]					cell growth after drug removal (K562 cells [4]): gradually resumed; also recorded: rapid recovery; pSTAT5 / STAT5 phosphorylation after drug withdrawal (pSTAT5): gradually recovered; body weight / tolerability ([5]; mouse, in vivo, ip, 10 mg/kg): without significant loss of body weight; tumor growth (K562 xenograft): potent tumor growth inhibition
Cc1nc(Nc2ncc(C(=O)Nc3c(C)cccc3Cl)s2)cc(N2CCN(CCOC(=O)CCOCCNC(=O)C(N)CCCNC(=N)N)CC2)n1 (stereo not shown) [Arg-PEG1-Dasa]	98.8	0.359	48	0.85 nM and 0.849 nM	cell growth after drug removal (K562 cells [4]): sustained growth inhibition; pSTAT5 / STAT5 phosphorylation after drug withdrawal (pSTAT5): remained markedly diminished; body weight / tolerability ([5]; nude mice, 10 mg/kg i.p. every other day, 10 doses): did not significantly alter the body weight; also recorded: without overt drug toxicity; BCR–ABL protein level after drug withdrawal (BCR–ABL [3]; 1 nM 2 days, washout, compound-free medium): remained markedly diminished; BCR–ABL degradation kinetics (cycloheximide chase) (BCR–ABL [3]; 2.5 nM for 32 h, then cycloheximide): quickly reduced; DC50 (BCR–ABL [3]; 48 h, listed as Arg-based PROTAC): ~0.85 nM; BCR–ABL degradation in combination with Lys-, Leu-, or Phe-PEG1-Dasa (BCR–ABL [3]; Arg-PEG1-Dasa mixed with varying doses of second PROTAC): not further enhanced; BCR–ABL protein level in tumor (BCR–ABL [6]): significantly downregulated; ubiquitination of immunoprecipitated BCR–ABL [7]: displayed the ubiquitination of immunoprecipitated BCR–ABL; tumor growth (K562 xenograft; 10 mg/kg): dramatically impeded tumor growth; also recorded: does not exhibit better antitumor effects than Dasa; also recorded: robust antitumor effects
Cc1nc(Nc2ncc(C(=O)Nc3c(C)cccc3Cl)s2)cc(N2CCN(CCOC(=O)CCOCCOCCNC(=O)C(N)CCCNC(=N)N)CC2)n1 (stereo not shown) [Arg-PEG2-Dasa]		0.53			
Cc1nc(Nc2ncc(C(=O)Nc3c(C)cccc3Cl)s2)cc(N2CCN(CCOC(=O)CCOCCNC(=O)[C@@H](N)CCCCN)CC2)n1 [Lys-PEG1-Dasa]	99.1	0.457	48	0.981 nM	DC50 (BCR–ABL [3]; 48 h, listed as Lys-based PROTAC): 0.98 nM
